The values below come from ChEMBL document CHEMBL1127983, “The synthesis and evaluation of peptidyl aspartyl aldehydes as inhibitors of ice” (Bioorg Med Chem Lett, 1994).

Square brackets hold non-standard residues; d marks the D form. Peptide text beside a SMILES is read from it. βAla = NCCC(=O)O

The target in this assay is T1, Caspase-1 (Homo sapiens, UniProt P29466).
T1 sequence (P29466 whole entry): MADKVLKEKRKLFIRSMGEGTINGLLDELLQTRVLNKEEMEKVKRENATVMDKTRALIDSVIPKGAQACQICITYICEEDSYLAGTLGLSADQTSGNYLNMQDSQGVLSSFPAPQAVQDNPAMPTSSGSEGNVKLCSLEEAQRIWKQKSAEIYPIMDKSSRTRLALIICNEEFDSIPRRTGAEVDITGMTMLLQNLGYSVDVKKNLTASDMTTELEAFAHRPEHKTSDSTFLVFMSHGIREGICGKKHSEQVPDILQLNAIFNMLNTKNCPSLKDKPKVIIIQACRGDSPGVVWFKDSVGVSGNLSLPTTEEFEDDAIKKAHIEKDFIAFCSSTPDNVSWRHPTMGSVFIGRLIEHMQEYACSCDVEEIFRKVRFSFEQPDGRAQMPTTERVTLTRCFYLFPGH
The assay is described as follows: Binding affinity towards IL-1 beta converting enzyme (ICE).

`CC(=O)N[C@@H](Cc1ccc(O)cc1)C(=O)N[C@H](C(=O)N[C@@H](C)C(=O)N(C)[C@H](C=O)CC(=O)O)C(C)C`: the Ki (commonly the equilibrium dissociation constant of an inhibitor or competing ligand from its target) was above 20 µM. As to `CC(=O)N[C@@H](Cc1ccc(O)cc1)C(=O)N[C@H](C(=O)N[C@@H](C)C(=O)N[C@H](C=O)CC(=O)O)C(C)C`, affinity was put at a Ki of 0.006 µM. Then `CC(=O)N[C@@H](Cc1ccc(O)cc1)C(=O)N[C@H](C(=O)N[C@@H](C)C(=O)N[C@@H]1CNC(=O)C1)C(C)C`, with above 20 µM; and `CC(=O)N[C@@H](Cc1ccc(O)cc1)C(=O)N(C)[C@H](C(=O)N[C@@H](C)C(=O)N[C@H](C=O)CC(=O)O)C(C)C`, with 50 µM. To `CC(=O)N[C@@H](Cc1ccc(O)cc1)C(=O)N[C@H](C(=O)N[C@H](C=O)CC(=O)O)C(C)C` (Ac-Tyr-Val-Asp-aldehyde) belongs 2.4 µM; to `CC(=O)N[C@@H](Cc1ccc(O)cc1)C(=O)N[C@H](C(=O)N(C)[C@@H](C)C(=O)N[C@H](C=O)CC(=O)O)C(C)C`, 0.059 µM. For `CC(=O)N[C@@H](Cc1ccc(O)cc1)C(=O)N[C@@H](C)C(=O)N[C@H](C=O)CC(=O)O` (Ac-Tyr-Ala-Asp-aldehyde), the Ki worked out at 2.1 µM.

The compound `CC(=O)N[C@H](C(=O)N[C@@H](C)C(=O)N[C@H](C=O)CC(=O)O)C(C)C` (Ac-Val-Ala-Asp-aldehyde) returned a Ki of 1.7 µM. Then `CC(=O)N[C@@H](Cc1ccc(O)cc1)C(=O)N[C@H](C(=O)N[C@@H](C)C(=O)N[C@H](/C=N\NC(N)=O)CC(=O)O)C(C)C`, with 0.5 µM.

For the compound `CC(=O)N(C)[C@@H](Cc1ccc(O)cc1)C(=O)N[C@H](C(=O)N[C@@H](C)C(=O)N[C@H](C=O)CC(=O)O)C(C)C`, the inhibition constant Ki was found to be 0.12 µM. Against the preceding compound, the Ki is about 4.2-fold lower.

For the compound `CC(=O)N[C@@H](Cc1ccc(O)cc1)C(=O)N[C@H](C=O)CC(=O)O` (Ac-Tyr-Asp-aldehyde), the Ki is above 20 µM.

Take `CC(=O)N[C@@H](Cc1ccc(O)cc1)C(=O)N[C@H](C(=O)N[C@@H](C)C(=O)N[C@@H]1COC(=O)C1)C(C)C`: the Ki is above 20 µM.

As for `CC(=O)N[C@@H](Cc1ccc(O)cc1)C(=O)N[C@H](C(=O)N[C@@H](C)C(=O)NCCC(=O)O)C(C)C` (Ac-YVA[βAla]-OH), the Ki was above 20 µM.

For the compound `CC(C)[C@H](NC(=O)CC(Cl)Cl)C(=O)N[C@@H](C)C(=O)N[C@H](C=O)CC(=O)O`, the affinity, expressed as Ki, was 0.028 µM.

For the compound `CC(=O)N[C@@H](C)C(=O)N[C@H](C=O)CC(=O)O` (Ac-Ala-Asp-aldehyde), the Ki is above 20 µM. To `CC(=O)N[C@@H](Cc1ccccc1)C(=O)N[C@H](C(=O)N[C@@H](C)C(=O)N[C@H](C=O)CC(=O)O)C(C)C` (Ac-FVAD-aldehyde) belongs 0.042 µM; to `CC(=O)N[C@@H](Cc1cc(I)c(O)c(I)c1)C(=O)N[C@H](C(=O)N[C@@H](C)C(=O)N[C@H](C=O)CC(=O)O)C(C)C`, 0.0075 µM.
